Among the data in patent US9920075B2, “Triazolopyridine and triazolopyrimidine inhibitors of myeloperoxidase” (BRISTOL-MYERS SQUIBB COMPANY, priority 2014, dated 2018) are IC50 values, retold here.

In general, IC50 refers to the concentration needed to halve the response being measured.

Values joined by “and” are separate entries in the source; they are usually repeats but may differ in a detail not shown here. Equal values may be shown once.

Assay [1] has as its target T1, myeloperoxidase (MPO) (Homo sapiens, UniProt P05164).
T1 sequence (P05164 49-745): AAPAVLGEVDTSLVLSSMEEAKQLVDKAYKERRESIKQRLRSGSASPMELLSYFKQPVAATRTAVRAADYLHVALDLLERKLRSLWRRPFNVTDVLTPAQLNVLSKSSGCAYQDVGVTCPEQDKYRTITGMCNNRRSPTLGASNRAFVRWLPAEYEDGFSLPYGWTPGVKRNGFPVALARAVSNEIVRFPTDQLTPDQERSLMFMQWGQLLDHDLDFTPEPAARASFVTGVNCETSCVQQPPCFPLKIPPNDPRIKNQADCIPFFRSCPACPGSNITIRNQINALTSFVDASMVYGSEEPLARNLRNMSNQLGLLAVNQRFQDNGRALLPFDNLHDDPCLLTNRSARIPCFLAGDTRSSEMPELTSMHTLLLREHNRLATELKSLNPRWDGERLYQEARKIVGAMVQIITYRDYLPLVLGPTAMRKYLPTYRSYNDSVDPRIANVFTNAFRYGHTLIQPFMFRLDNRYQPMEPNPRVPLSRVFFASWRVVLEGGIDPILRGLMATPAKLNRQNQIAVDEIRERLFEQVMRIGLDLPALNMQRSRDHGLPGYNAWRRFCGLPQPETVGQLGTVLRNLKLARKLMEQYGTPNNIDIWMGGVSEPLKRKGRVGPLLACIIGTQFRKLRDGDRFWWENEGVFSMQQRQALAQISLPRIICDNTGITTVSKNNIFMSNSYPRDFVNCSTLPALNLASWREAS
Description: MPO peroxidation assay (Amplex Red assay). In kind it is biochemical. The gist of the method: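 Enzyme and compound preincubated 10 min at room temperature in 100 mM KPi, pH 7.4. Amplex Red (200 μM) plus H2O2 (10 mM) mixture then added, peroxidase oxidation to fluorescent resorufin followed kinetically. IC50 from slope over 180–540 s, converted to % inhibition and fitted to a four-parameter Hill equation.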

Assay [2] deals with T1, myeloperoxidase (MPO). Description: MPO chlorination assay (APF assay). It counts as biochemical. How it is done: [formula] where A=minimal Y value (activity level of inhibited sample), B=maximal Y value (activity level of uninhibited sample), C=Log IC50, D=Hill Slope, x=concentration of inhibitor. MPO Chlorination Assay (APF Assay)
MPO chlorination activity was measured in 100 mM KPi (pH 7.4) by utilizing the non-fluorescent reagent Aminophenyl fluorescein (APF, Invitrogen Cat. #A36003). APF is cleaved by (—OCl) to yield the fluorescent compound fluorescein. […] Enzyme, inhibitor, and chloride were preincubated for ten minutes at room temperature.
After the ten minute preincubation, 25 μL of an APF mixture containing […], 120 mM NaCl and 10 μM H2O2 was added to the plate using the internal dispensing system of a Hammatsu FDSS 6000. […] IC50 values for inhibitors were calculated by taking the slope of the linear portion of the kinetic measurement (20 seconds to ˜80-120 secs).
IC50 values were calculated by determining the slope of the linear portion of the kinetic trace (180-540 secs), and using that calculated slope to determine % inhibition occurring at each concentration of inhibitor using the following equation:
[formula] where A=minimal Y value (activity level of inhibited sample), B=maximal Y value (activity level of uninhibited sample), C=Log IC50, D=Hill Slope, x=concentration of inhibitor. EPX Bromination Assay

Setting [3] is: MPO peroxidation, 100 mM KPi pH 7.4, ten minute preincubation, read-out: Amplex Red Assay IC50 value.
Setting [4] is: MPO chlorination, 100 mM KPi pH 7.4, ten minute preincubation, read-out: APF Assay IC50 value.
Setting [5] is: MPO peroxidation (Amplex Red), ranges given, read-out: MPO peroxidation assay IC50 values (binned).

As to `Cc1nn(-c2cccc(F)c2)nc1COc1cc(N)nc2[nH]nnc12` [Example 12, 7-((2-(3-Fluorophenyl)-5-methyl-2H-1,2,3-triazol-4-yl)methoxy)-3H-[1,2,3]triazolo[4,5-b]pyridin-5-amine], the half-maximal inhibitory concentration (IC50) worked out at 20 nM at myeloperoxidase (MPO) [1] (setting [3]) and 80 nM on myeloperoxidase (MPO) [2] (setting [4]).

Consider `COc1cccc(-n2nc(C)c(COc3cc(N)nc4[nH]nnc34)n2)c1` [Example 13, 7-((2-(3-Methoxyphenyl)-5-methyl-2H-1,2,3-triazol-4-yl)methoxy)-3H-[1,2,3]triazolo[4,5-b]pyridin-5-amine], for which the IC50 on myeloperoxidase (MPO) [1] (setting [3]) stood at 30 nM; on myeloperoxidase (MPO) [2] (setting [4]) it was 100 nM.

Consider `Nc1cc(OCc2cc(-c3ccccc3)no2)c2nn[nH]c2n1` [Example 14, 7-((3-Phenylisoxazol-5-yl)methoxy)-3H-[1,2,3]triazolo[4,5-b]pyridin-5-amine], for which the half-maximal inhibitory concentration (IC50) at myeloperoxidase (MPO) [1] (Amplex Red Assay IC50 value, MPO peroxidation, 100 mM KPi pH 7.4, ten minute preincubation) was 120 nM; at myeloperoxidase (MPO) [2], 120 nM.

In the case of `Nc1cc(OCc2cncn2Cc2ccccc2)c2nn[nH]c2n1` [Example 28, 7-((1-Benzyl-1H-imidazol-5-yl)methoxy)-3H-[1,2,3]triazolo[4,5-b]pyridin-5-amine], the concentration for half-maximal inhibition (IC50) on myeloperoxidase (MPO) [1] (setting [3]) turned out to be 2400 nM; at myeloperoxidase (MPO) [2] (setting [4]), 1190 nM.

For the compound `Nc1cc(OCC2COc3ccccc3O2)c2nn[nH]c2n1` (stereo not shown) [Example 32, 7-((2,3-Dihydrobenzo[b][1,4]dioxin-2-yl)methoxy)-3H-[1,2,3]triazolo[4,5-b]pyridin-5-amine], the IC50 on myeloperoxidase (MPO) [1] (setting [3]) came out at 610 nM; at myeloperoxidase (MPO) [2] (setting [4]) it was 320 nM.

In the case of `Nc1cc(OCC2COc3ccccc3C2)c2nn[nH]c2n1` (stereo not shown) [Example 34, 7-(Chroman-3-ylmethoxy)-3H-[1,2,3]triazolo[4,5-b]pyridin-5-amine], the IC50 at myeloperoxidase (MPO) [1] (setting [3]) came to 1390 nM; on myeloperoxidase (MPO) [2] (setting [4]), 790 nM.

Regarding `COc1cc(-c2nc(COc3cc(N)nc4[nH]nnc34)c(C)o2)ccc1Cl` [Example 43, 7-((2-(4-Chloro-3-methoxyphenyl)-5-methyloxazol-4-yl)methoxy)-3H-[1,2,3]triazolo[4,5-b]pyridin-5-amine], the IC50 on myeloperoxidase (MPO) [1] (setting [3]) amounted to 760 nM; at myeloperoxidase (MPO) [2] (setting [4]) it was 1520 nM.

Regarding `Cc1oc(-c2ccc(S(C)(=O)=O)cc2)nc1CSc1cc(N)nc2[nH]nnc12` [Example 46, 7-((5-Methyl-2-(4-(methylsulfonyl)phenyl)oxazol-4-yl)methylthio)-3H-[1,2,3]triazolo[4,5-b]pyridin-5-amine], the results for the IC50 on myeloperoxidase (MPO) [1] (setting [3]) and at myeloperoxidase (MPO) [2] (setting [4]) were 90 nM and 470 nM, respectively.

In the case of `Nc1cc(OCc2nn(Cc3ccccc3)c3ccccc23)c2nn[nH]c2n1` [Example 53, 7-((1-Benzyl-1H-indazol-3-yl)methoxy)-3H-[1,2,3]triazolo[4,5-b]pyridin-5-amine], the IC50 on myeloperoxidase (MPO) [1] (setting [3]) stood at 80 nM; on myeloperoxidase (MPO) [2] (setting [4]), 100 nM.

`Nc1cc(OCc2ncc(-c3ccc(C4CC4)nc3)cc2F)c2nn[nH]c2n1` [Example 101, 7-((6′-cyclopropyl-5-fluoro-[3,3′-bipyridin]-6-yl)methoxy)-3H-[1,2,3]triazolo[4,5-b] pyridin-5-amine]: at myeloperoxidase (MPO) [1] (setting [5]), the IC50 was at most 60 nM.

As to `Cn1nc(COc2cc(N)nc3[nH]nnc23)cc1-c1ccc(CO)nc1` [Example 103, (5-(3-(((5-amino-3H-[1,2,3]triazolo[4,5-b]pyridin-7-yl)oxy)methyl)-1-methyl-1H-pyrazol-5-yl)pyridin-2-yl)methanol], at myeloperoxidase (MPO) [1] (setting [5]), the IC50 fell in the range of 60 to 150 nM.

For the compound `Cn1nc(COc2cc(N)nc3[nH]nnc23)cc1-c1ccc(N2CCNCC2)nc1` [Example 104, 7-((1-methyl-5-(6-(piperazin-1-yl)pyridin-3-yl)-1H-pyrazol-3-yl)methoxy)-3H-[1,2,3]triazolo[4,5-b]pyridin-5-amine], the IC50 on myeloperoxidase (MPO) [1] (setting [5]) was at most 60 nM.

Consider `CN1CCN(c2ccc(-c3cc(COc4cc(N)nc5[nH]nnc45)nn3C)cn2)CC1` [Example 105, 7-((1-methyl-5-(6-(4-methylpiperazin-1-yl)pyridin-3-yl)-1H-pyrazol-3-yl)methoxy)-3H-[1,2,3]triazolo[4,5-b]pyridin-5-amine], for which the half-inhibitory concentration (IC50) on myeloperoxidase (MPO) [1] (setting [5]) was at most 60 nM.

Turning to `CN1CCN(c2ccc(-c3cnc(COc4cc(N)nc5[nH]nnc45)c(F)c3)cn2)CC1` [Example 107, 7-((5-fluoro-6′-(4-methylpiperazin-1-yl)-[3,3′-bipyridin]-6-yl)methoxy)-3H-[1,2,3] triazolo[4,5-b]pyridin-5-amine], the 50% inhibitory concentration (IC50) at myeloperoxidase (MPO) [1] (setting [5]) is at most 60 nM.

Consider `Nc1cc(OCc2ncc(-c3ccc(CO)nc3)cc2F)c2nn[nH]c2n1` [Example 108, (6′-(((5-amino-3H-[1,2,3]triazolo[4,5-b]pyridin-7-yl)oxy)methyl)-5′-fluoro-[3,3′-bipyridin]-6-yl)methanol], for which the IC50 at myeloperoxidase (MPO) [1] (setting [5]) is 60 to 150 nM.

For `Nc1cc(OCc2cc(-c3ccc(N4CCNCC4)nc3)ncc2F)c2nn[nH]c2n1` [Example 110, 7-((5-fluoro-6′-(piperazin-1-yl)-[2,3′-bipyridin]-4-yl)methoxy)-3H-[1,2,3] triazolo[4,5-b]pyridin-5-amine], at myeloperoxidase (MPO) [1] (setting [5]), the IC50 was at most 60 nM.

Regarding `Nc1cc(OCc2cc(-c3ccc(CO)nc3)ncc2F)c2nn[nH]c2n1` [Example 111, (4-(((5-amino-3H-[1,2,3]triazolo[4,5-b]pyridin-7-yl)oxy)methyl)-5-fluoro-[2,3′-bipyridin]-6′-yl)methanol], the IC50 at myeloperoxidase (MPO) [1] (setting [5]) lay within 60 to 150 nM.

Take `Nc1nc(OCc2cccc3occc23)c2nn[nH]c2n1` [Example 112, 7-(Benzofuran-4-ylmethoxy)-3H-[1,2,3]triazolo[4,5-d]pyrimidin-5-amine]: the concentration for half-maximal inhibition (IC50) at myeloperoxidase (MPO) [1] (setting [5]) was 60 to 150 nM.

Regarding `Nc1nc(OCc2cccnc2)c2nn[nH]c2n1` [Example 113, 7-(pyridin-3-ylmethoxy)-3H-[1,2,3] triazolo[4,5-d]pyrimidin-5-amine], on myeloperoxidase (MPO) [1] (setting [5]), the IC50 is 60 to 150 nM.

`Nc1nc(OCc2cccc3cccnc23)c2nn[nH]c2n1` [Example 114, 7-(quinolin-8-ylmethoxy)-3H-[1,2,3] triazolo[4,5-d]pyrimidin-5-amine]: at myeloperoxidase (MPO) [1] (setting [5]), the IC50 fell in the range of 60 to 150 nM.

Regarding `Nc1nc(OCc2ccc3ncccc3c2)c2nn[nH]c2n1` [Example 115, 7-(quinolin-6-ylmethoxy)-3H-[1,2,3] triazolo[4,5-d]pyrimidin-5-amine], the IC50 at myeloperoxidase (MPO) [1] (setting [5]) lay within 60 to 150 nM.

Turning to `Nc1nc(OCc2cccc3ncccc23)c2nn[nH]c2n1` [Example 116, 7-(quinolin-5-ylmethoxy)-3H-[1,2,3] triazolo[4,5-d]pyrimidin-5-amine], on myeloperoxidase (MPO) [1] (setting [5]), the IC50 was in the range of 60 to 150 nM.

Turning to `COc1ccc(-c2cncc(COc3nc(N)nc4[nH]nnc34)c2)cc1` [Example 118, 7-((5-(4-methoxyphenyl)pyridin-3-yl)methoxy)-3H-[1,2,3]triazolo[4,5-d] pyrimidin-5-amine], at myeloperoxidase (MPO) [1] (setting [5]), the 50% inhibitory concentration (IC50) lay within 60 to 150 nM.

For the compound `Nc1nc(OCc2cc(Cl)nc(Cl)c2)c2nn[nH]c2n1` [Example 119, 7-((2,6-dichloropyridin-4-yl)methoxy)-3H-[1,2,3]triazolo[4,5-d]pyrimidin-5-amine], the IC50 on myeloperoxidase (MPO) [1] (setting [5]) lay in the range of 60 to 150 nM.

Consider `Nc1nc(OCc2ccc(Cl)nc2)c2nn[nH]c2n1` [Example 120, 7-((6-chloropyridin-3-yl)methoxy)-3H-[1,2,3]triazolo[4,5-d]pyrimidin-5-amine], for which the IC50 at myeloperoxidase (MPO) [1] (setting [5]) lay within 150 to 1000 nM.

For the compound `Nc1nc(OCc2cn(-c3ccccc3)nn2)c2nn[nH]c2n1` [Example 121, 7-((1-phenyl-1H-1,2,3-triazol-4-yl)methoxy)-3H-[1,2,3]triazolo[4,5-d] pyrimidin-5-amine], the IC50 on myeloperoxidase (MPO) [1] (setting [5]) is 60 to 150 nM.

For the compound `Nc1nc(OCc2ccc(Oc3ccccc3)nc2)c2nn[nH]c2n1` [Example 122, 7-((6-phenoxypyridin-3-yl)methoxy)-3H-[1,2,3]triazolo[4,5-d]pyrimidin-5-amine], on myeloperoxidase (MPO) [1] (setting [5]), the IC50 fell in the range of 60 to 150 nM.

Take `Nc1nc(OCc2csc(-c3cccc(Cl)c3Cl)n2)c2nn[nH]c2n1` [Example 124, 7-((2-(2,3-dichlorophenyl)thiazol-4-yl)methoxy)-3H-[1,2,3]triazolo[4,5-d] pyrimidin-5-amine]: the IC50 on myeloperoxidase (MPO) [1] (setting [5]) is 60 to 150 nM and 150 to 1000 nM.
